Data reported in PubChem BioAssay AID248 (DTP/NCI, 2004).
Toxic doses and inconclusive results are not listed. No stated cut-off is given here; in the data, active means T/C of 150% or more; inactive means T/C below 125%.

Tested on: L1210 leukemia ip in BDF1 mice, survival T/C
Assay: NCI In Vivo Anticancer Drug Screen. Data for tumor model L1210 Leukemia (intraperitoneal) in B6D2F1 (BDF1) mice
Details: endpoint: mean survival time, higher = longer survival
Method in brief: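 Read-out is survival time, reported as the treated-group measurement over the vehicle-control measurement.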

[1] = dose: 100.0 mg/kg/injection, schedule: Q01DX009 (ip), vehicle: Klucel (hydroxypropylcellulose) (HPC)
[2] = dose: 100.0 mg/kg/injection, schedule: Q04DX003 (ip), vehicle: Klucel (hydroxypropylcellulose) (HPC)
[3] = dose: 200.0 mg/kg/injection, schedule: Q04DX003 (ip), vehicle: Klucel (hydroxypropylcellulose) (HPC)
[4] = dose: 400.0 mg/kg/injection, schedule: Q04DX003 (ip), vehicle: Klucel (hydroxypropylcellulose) (HPC)
[5] = dose: 100.0 mg/kg/injection, schedule: Q01DX009 (ip), vehicle: saline with Tween-80
[6] = dose: 100.0 mg/kg/injection, schedule: Q04DX003 (ip), vehicle: saline with Tween-80
[7] = dose: 200.0 mg/kg/injection, schedule: Q01DX009 (ip), vehicle: saline with Tween-80
[8] = dose: 200.0 mg/kg/injection, schedule: Q04DX003 (ip), vehicle: saline with Tween-80
[9] = dose: 400.0 mg/kg/injection, schedule: Q01DX009 (ip), vehicle: saline with Tween-80
[10] = dose: 400.0 mg/kg/injection, schedule: Q04DX003 (ip), vehicle: saline with Tween-80
[11] = dose: 100.0 mg/kg/injection, schedule: Q04DX002 (ip), vehicle: saline with Tween-80
[12] = dose: 200.0 mg/kg/injection, schedule: Q04DX002 (ip), vehicle: saline with Tween-80
[13] = dose: 400.0 mg/kg/injection, schedule: Q04DX002 (ip), vehicle: saline with Tween-80
[14] = dose: 50.0 mg/kg/injection, schedule: Q01DX009 (ip), vehicle: saline
[15] = dose: 100.0 mg/kg/injection, schedule: Q04DX003 (ip), vehicle: saline
[16] = dose: 200.0 mg/kg/injection, schedule: Q04DX003 (ip), vehicle: saline
[17] = dose: 100.0 mg/kg/injection, schedule: Q01DX009 (ip), vehicle: saline
[18] = dose: 100.0 mg/kg/injection, schedule: Q01DX001 (ip), vehicle: carboxymethylcellulose (CMC)
[19] = dose: 200.0 mg/kg/injection, schedule: Q01DX001 (ip), vehicle: carboxymethylcellulose (CMC)
[20] = dose: 400.0 mg/kg/injection, schedule: Q01DX001 (ip), vehicle: carboxymethylcellulose (CMC)
[21] = dose: 100.0 mg/kg/injection, schedule: Q01DX001 (ip), vehicle: saline
[22] = dose: 200.0 mg/kg/injection, schedule: Q01DX001 (ip), vehicle: saline
[23] = dose: 200.0 mg/kg/injection, schedule: Q01DX009 (ip), vehicle: saline
[24] = dose: 400.0 mg/kg/injection, schedule: Q01DX001 (ip), vehicle: saline
[25] = dose: 400.0 mg/kg/injection, schedule: Q01DX009 (ip), vehicle: saline
[26] = dose: 400.0 mg/kg/injection, schedule: Q04DX003 (ip), vehicle: saline

Measured: T/C

C/C=C/C(C#N)Nc1ccccc1C(N)=O (stereo not given)
inactive: dose: 12.5 mg/kg/injection, schedule: Q04DX003 (ip), vehicle: Klucel (hydroxypropylcellulose) (HPC) 91 % of control | dose: 25.0 mg/kg/injection, schedule: Q01DX009 (ip), vehicle: Klucel (hydroxypropylcellulose) (HPC) 104 % of control | dose: 25.0 mg/kg/injection, schedule: Q04DX003 (ip), vehicle: Klucel (hydroxypropylcellulose) (HPC) 96 % of control | dose: 50.0 mg/kg/injection, schedule: Q01DX009 (ip), vehicle: Klucel (hydroxypropylcellulose) (HPC) 103 % of control | dose: 50.0 mg/kg/injection, schedule: Q04DX003 (ip), vehicle: Klucel (hydroxypropylcellulose) (HPC) 102 % of control | [1] 95 % of control | [2] 94 % of control

CCOC(=O)c1c[nH]c2cc(Cl)ccc2c1=O
inactive: [1] 97 % of control | [2] 98 % of control | dose: 200.0 mg/kg/injection, schedule: Q01DX009 (ip), vehicle: Klucel (hydroxypropylcellulose) (HPC) 100 % of control | [3] 102 % of control | dose: 400.0 mg/kg/injection, schedule: Q01DX009 (ip), vehicle: Klucel (hydroxypropylcellulose) (HPC) 98 % of control | [4] 96 % of control

Cc1ccc(NC(=O)Nc2cc([N+](=O)[O-])ccc2F)cc1C
inactive: [2] 101 % of control | [3] 98 % of control | [4] 101 % of control

O=C1c2ccccc2CC1(Br)C(Br)c1ccccc1 (stereo not given)
inactive: dose: 100.0 mg/kg/injection, schedule: Q01DX009 (ip), vehicle: saline sonified 99 % of control | [5] 96 % of control | [2] 104 % of control | [6] 107 % of control | dose: 200.0 mg/kg/injection, schedule: Q01DX009 (ip), vehicle: saline sonified 95 % of control | [7] 91 % of control | [3] 101 % of control | [8] 103 % of control | dose: 400.0 mg/kg/injection, schedule: Q01DX009 (ip), vehicle: saline sonified 94 % of control | [9] 89 % of control | [4] 98 % of control | [10] 104 % of control

CO/C(C)=C(/C#N)C(N)=S
inactive: [11] 93 % of control | [12] 97 % of control | [13] 101 % of control

CC(C(=O)c1ccccc1)C(N[N+](C)(C)C)c1ccccc1 (stereo not given)
inactive: dose: 6.25 mg/kg/injection, schedule: Q04DX003 (ip), vehicle: saline 91 % of control | dose: 12.5 mg/kg/injection, schedule: Q04DX003 (ip), vehicle: saline 97 % of control | dose: 25.0 mg/kg/injection, schedule: Q04DX003 (ip), vehicle: saline 97 % of control

C1[CH2][Hg][CH2]CO1
inactive: dose: 100.0 mg/kg/injection, schedule: Q04DX002 (ip), vehicle: saline 100 % of control | dose: 200.0 mg/kg/injection, schedule: Q04DX002 (ip), vehicle: saline 100 % of control

COc1ccccc1OC(=O)Nc1ccc(C)c([N+](=O)[O-])c1
inactive: dose: 25.0 mg/kg/injection, schedule: Q01DX009 (ip), vehicle: saline with Tween-80 95 % of control | dose: 50.0 mg/kg/injection, schedule: Q01DX009 (ip), vehicle: saline with Tween-80 118 % of control | [5] 92 % of control

CN1CCN(C(=S)[S-])CC1.CN1CCN(C(=S)[S-])CC1.[Zn]
inactive: dose: 2.5 mg/kg/injection, schedule: Q01DX009 (ip), vehicle: acetone 96 % of control | dose: 5.0 mg/kg/injection, schedule: Q01DX009 (ip), vehicle: acetone 96 % of control | dose: 5.0 mg/kg/injection, schedule: Q04DX003 (ip), vehicle: acetone 100 % of control | dose: 10.0 mg/kg/injection, schedule: Q01DX001 (ip), vehicle: saline 91 % of control | dose: 10.0 mg/kg/injection, schedule: Q01DX009 (ip), vehicle: acetone 108 % of control | dose: 10.0 mg/kg/injection, schedule: Q04DX003 (ip), vehicle: acetone 92 % of control | dose: 20.0 mg/kg/injection, schedule: Q01DX001 (ip), vehicle: saline 91 % of control | dose: 20.0 mg/kg/injection, schedule: Q04DX003 (ip), vehicle: acetone 92 % of control

Cn1cnc2ncnn2c1=S
inactive: [14] 114 % of control | [15] 103 % of control | [16] 105 % of control

c1ccc2c(c1)CNCc1ccccc1-2
inactive: dose: 25.0 mg/kg/injection, schedule: Q01DX009 (ip), vehicle: saline 92 % of control | [14] 105 % of control | [17] 96 % of control | [15] 105 % of control

COC(=O)C1=NNC(c2ccc(OC)cc2)C1 (stereo not given)
inactive: dose: 100.0 mg/kg/injection, schedule: Q01DX001 (ip), vehicle: steriod suspending solution 115 % of control | dose: 200.0 mg/kg/injection, schedule: Q01DX001 (ip), vehicle: steriod suspending solution 97 % of control | dose: 400.0 mg/kg/injection, schedule: Q01DX001 (ip), vehicle: steriod suspending solution 103 % of control

O=C(Cn1ccc(O)cc1=O)c1ccco1
inactive: [5] 108 % of control | [6] 96 % of control | [7] 104 % of control | [8] 94 % of control | [9] 101 % of control | [10] 97 % of control

O=C1NC(=O)C2(CCN(CCCSc3ccc(F)cc3)CC2)C(=O)N1
inactive: [2] 98 % of control | [3] 98 % of control | [4] 94 % of control

CCCCCCC1N(Cc2ccccc2OC)CCCN1Cc1ccccc1OC
inactive: [18] 100 % of control | [19] 105 % of control | [20] 94 % of control

CN(C)c1ccc(N=[N+]=[N-])cc1
inactive: [11] 98 % of control | [12] 95 % of control | [13] 98 % of control

Nc1cc2c(cc1[N+](=O)[O-])-c1ccccc1/C2=N\O
inactive: [18] 91 % of control | [19] 100 % of control | [20] 88 % of control

O=c1[nH]c2ccsc2c(=O)n1O
inactive: [15] 102 % of control | [16] 97 % of control

CCOC(=O)C1=C2C(C(=O)OCC)C(O)=C(C(=O)OCC)C2C(C(=O)OCC)C1=O (stereo not given)
inactive: [21] 103 % of control | [17] 104 % of control | [15] 97 % of control | [22] 92 % of control | [23] 104 % of control | [16] 103 % of control | [24] 97 % of control | [25] 109 % of control | [26] 117 % of control

Cc1ccc(S(C)(=N)=O)cc1 (stereo not given)
inactive: [17] 102 % of control | [15] 95 % of control | [23] 100 % of control | [16] 98 % of control | [25] 105 % of control | [26] 98 % of control

NC(Cc1ccc(O)c(O)c1)C(=O)O (stereo not given)
inactive: [21] 93 % of control | [22] 95 % of control | [24] 97 % of control
